From BindingDB's records for patent US12281118 (Shanghai Ringene Biopharma, 2025)

What follows are compounds tested against T1, Tyrosine-protein phosphatase non-receptor type 11 (Homo sapiens, UniProt Q06124) (assay: Test of Inhibitory Activity Assay).
T1 sequence (Q06124 whole entry): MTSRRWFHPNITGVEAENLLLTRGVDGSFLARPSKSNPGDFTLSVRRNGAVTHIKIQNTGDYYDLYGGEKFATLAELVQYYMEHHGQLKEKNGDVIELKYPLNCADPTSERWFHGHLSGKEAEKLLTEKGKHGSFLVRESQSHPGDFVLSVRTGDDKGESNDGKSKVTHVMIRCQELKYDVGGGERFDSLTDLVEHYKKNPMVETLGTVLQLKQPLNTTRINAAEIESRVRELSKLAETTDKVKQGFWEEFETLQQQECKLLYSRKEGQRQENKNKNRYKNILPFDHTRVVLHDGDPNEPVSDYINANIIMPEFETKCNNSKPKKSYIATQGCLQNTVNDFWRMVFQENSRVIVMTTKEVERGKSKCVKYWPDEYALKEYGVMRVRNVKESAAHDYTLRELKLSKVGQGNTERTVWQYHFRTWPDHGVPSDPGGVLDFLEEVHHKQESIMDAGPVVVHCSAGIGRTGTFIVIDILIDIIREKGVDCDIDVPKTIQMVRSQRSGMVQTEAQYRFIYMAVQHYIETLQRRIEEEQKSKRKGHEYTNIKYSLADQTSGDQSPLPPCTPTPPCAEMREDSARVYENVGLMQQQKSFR
Procedure: (1) Preparing 1×Reaction Buffer according to the BPS Biosciences' Instructions for Use of the SHP2 enzyme. (2) Preparing a compound concentration gradient: Test the test compound at 10 μM under 3× dilution for 10 concentrations, diluting to a 100% dimethyl sulfoxide solution at a 100× final concentration in a 384-well plate, and diluting the compound with Precision 4× for 10 concentrations. […] (3) Preparing the activation peptide solution at a 5× final concentration with the 1×Reaction Buffer, adding 5 μL of the solution to a reaction plate, respectively, and centrifuging at 1000 rpm for 1 min. (4) Preparing an enzyme solution at a 2.5× final concentration with the 1×Reaction Buffer, adding 10 μL of the solution to the reaction plate, respectively, centrifuging at 1000 rpm for 1 min, and incubating at room temperature for 60 min. […] (6) Adding 30 μL of stop test solution to stop the reaction, centrifuging at 1000 rpm for […], and mixing well by shaking. (7) Reading the conversion rate with a Caliper EZ Reader. (7) Data analysis:%Inhibition=Conversion%_max-Conversion%_sampleConversion%_max-Conversion%_min×100Wherein: Conversion %/_sample is the reading of a conversion rate of a sample; Conversion %_min: mean of negative control wells, which represents the reading of a conversion rate in absence of enzyme activity wells; Conversion %_max: mean of a ratio of positive control wells, which represents the reading of a conversion rate in absence of compound inhibition wells.

IC50 | SMILES
6.3 nM | Cc1nc(N2CCC3(CC2)Cc2ccccc2[C@H]3N)n2ccnc2c1Sc1cccnc1C(F)(F)F [US12281118, Example 2]
> 1000 nM | Cc1nc(N2CCC(C)(N)CC2)n2ncnc2c1-c1cccc(Cl)c1Cl [US12281118, Example 21]
> 1000 nM | Cc1nc(N2CCC(C)(N)CC2)n2cnnc2c1-c1cccc(Cl)c1Cl [US12281118, Example 22]
> 1000 nM | Cc1cc(N2CCC(C)(N)CC2)n2cnnc2c1-c1cccc(Cl)c1Cl [US12281118, Example 23]
65 nM | Cc1nc(N2CCC(C)(N)CC2)n2ccnc2c1Sc1cccc(Cl)c1Cl [US12281118, Example 25]
53 nM | CC1(N)CCN(c2nc(CF)c(-c3cccc(Cl)c3Cl)c3nccn23)CC1 [US12281118, Example 28]
